In US11814623B2, “Methods of treating a wound using epigenetic regulation” (University of Massachusetts, priority 2018, dated 2023):

Columns and labels:
HSCs from db/db mice = assay: Intracellular ROS (DCF) in HSCs of db/db mice given NAC; type: in vivo, mouse; conditions: NAC 150 mg/kg/day via drinking water for 8 weeks, FIG. 6A
Text: 8-12 weeks old male C57BL/6J wild type (WT) and […] (db/db) mice were used in the studies. All mice were purchased from Jackson Laboratories and were maintained in mouse barrier facilities. Care and use of mice was in accordance with NIH guidelines and the Institutional Animal Care and Use Committee of the University of Massachusetts Medical School approved protocols. db/db and WT mice were fed standard chow diet (5.4 g/100 g diet, 0% cholesterol) and HFD mice were generated by feeding C57BL/6J mice a high fat diet (60% fat calories; Research Diet, New Brunswick, N.J.). N-acetylcysteine (NAC) was given for 8 weeks (150 mg/kg/day via drinking water. Whole bone marrow cells were flushed out from femurs and tibialis. Bone marrow cells were stained with antibodies for the identification of HSCs (c-Kit^+Scal^+lineage^-CD90.1^lo/-). The antibodies used were: c-Kit (1:50, eBioscience 12-1171, clone: 2B8), Sca-1 (1:50, eBioscience 11-5981, clone: D7), CD90.1 (1:50, eBioscience 45-0900, clone:[…]) and a lineage cocktail antibody (1:50, BD Bioscience 558074). As for the gating strategy for flow cytometry, we first gated on single, viable cells and eliminated any debris, dead cells and clumps or doublets. Next, gates were drawn on the c-Kitpositive/Scal-positive/lineage-negative/CD90.1^low-negative population for HSC sorting. […]

[1] = system: bone marrow monocytes of db/db mice; assay: CD115+CD11b+ monocyte concentration in bone marrow by flow cytometry; type: in vivo, mouse; conditions: NAC 150 mg/kg/day via drinking water for 8 weeks, FIG. 6C
Text: 8-12 weeks old male C57BL/6J wild type (WT) and […] (db/db) mice were used in the studies. All mice were purchased from Jackson Laboratories and were maintained in mouse barrier facilities. Care and use of mice was in accordance with NIH guidelines and the Institutional Animal Care and Use Committee of the University of Massachusetts Medical School approved protocols. db/db and WT mice were fed standard chow diet (5.4 g/100 g diet, 0% cholesterol) and HFD mice were generated by feeding C57BL/6J mice a high fat diet (60% fat calories; Research Diet, New Brunswick, N.J.). N-acetylcysteine (NAC) was given for 8 weeks (150 mg/kg/day via drinking water.

Dnmt1 = Dnmt1 expression in HSCs (qRT-PCR, Western blot); type: cell-based, mouse
Procedure: Quantification was performed using ImageJ software.
Total RNA was isolated using the mirVana miRNA isolation kit (Applied Biosystems). cDNA was synthesized using the QuantiMir RT Kit small RNA quantification system (SBI). qRT-PCR was performed as described previously. Mouse U6 was used as an endogenous control. The let-7d-3p mimic and inhibitor were purchased from Life Technologies (catalog numbers 4464066 and 4464084, respectively).

Dnmt3a and DNMT3b = assay: Dnmt3a and Dnmt3b expression in db/db HSCs (qRT-PCR, Western blot); conditions: FIGS. 7E-F
[2] = system: Notch1, PU.1 and Klf4 genes; assay: DNA methylation of Notch1, PU.1 and Klf4 by pyrosequencing; type: cell-based, mouse; conditions: db/db HSCs; FIG. 14A, FIG. 15, FIG. 16
Procedure: Genomic DNA was isolated by traditional phenol-chloroform extraction and isopropanol precipitation. DNA concentration was measured using a Nano Drop spectrophotometer. Around 500 ng genomic DNA were bisulfite converted by EZ DNA methylation-Gold kit following the manufacturer's instructions (Zymo Research). PCR amplification was performed using 2×HiFi Hotstart Uracil+ready mix PCR (Kapa Biosystems). PCR and pyrosequencing primer sets with one biotin-labeled primer were used to amplify the bisulfite converted DNA. Primers were designed using PyroMark Assay Design software version 2.0.1.15 (Qiagen). The size of the amplicons was 200 bp or less. Briefly, 5 μl master mix, […] of each primer, 20 ng genomic DNA and ultra-pure water to a final volume of 10 μl were mixed for each reaction and run at thermal cycling conditions: 95° C. for 3 min and then 50 cycles: 20 sec at 98° C.; 15 sec at the optimized primer-specific annealing temperature; 15 sec at 72° C. and a final extension for 1 min at 72° C. […] PyroGold reagents were used for the pyrosequencing reaction and the signal was analyzed using the PSQ 96MA system (Biotage, Uppsala, Sweden). Target CGs were evaluated by instrument software (PSQ96MA 2.1), which converts the pyrograms to numerical values for peak heights and calculates the methylation at each base as a C/T ratio.

[3] = system: H3K9me2 and H3K9me3 at Klf4, PU.1 and Notch1 promoters; assay: ChIP-PCR of H3K9 histone methylation at Notch1, PU.1 and Klf4; type: cell-based, mouse; conditions: db/db HSCs; FIG. 17B and FIG. 18
Procedure: 1×10^6 HSCs were sorted and cross-linked with 1% formaldehyde at room temperature for 10 min, and the reaction was stopped by adding Glycine to a final concentration of 0.125M and incubating at room temperature for 5 min. Cross-linked cells were lysed in lysis buffer and sonicated to 200-500 bp fragments (Bioruptor, Diagenode). The sonicated chromatin was centrifuged at 4° C. for 5 min. The cross-linked DNA was immunoprecipitated with H3K9me3, H3K9me2 or H3K9Ac antibodies (Millipore, USA) overnight at 4° C. with rotation, DNA-Antibody complexes were bound to ChIP beads, pulled down, washed and then eluted from the beads. Following reversal of cross-linkage, purified DNA was used for quantitative PCR using ChIP PCR primers purchased from IDT (MA, USA). Immunoprecipitation efficiency was calculated by normalizing sample CT values against control IgG values and calculating ratios of sample CT values relative to input values.

[4] = system: Dnmt1 M1 and Dnmt1 M2 (mutated let-7d-3p binding sites in Dnmt1 3′ UTR); assay: Mutant Dnmt1 3' UTR luciferase reporter assay in HEK293T cells; type: cell-based, mouse; conditions: FIG. 8C
Procedure: (§1) HEK293T cells grown in 96-well plates were transfected with pmirGLO containing the Dnmt1 3′ UTR region that includes the let-7d-3p binding sites. The cells were co-transfected with let-7d-3p using Lipofectamine (Invitrogen). The Firefly and Renilla luciferase activities in the cell lysates were assayed with a Dual-Luciferase Reporter Assay System (Promega) at 48 h post-transfection. To generate the mutant variants, point mutations in the binding sites of let-7d-3p in the 3′-UTR region of Dnmt1 were introduced by PCR according to the site-directed mutagenesis protocol from Agilent. The two mutants that were generated are labeled “Dnmt1 M1” and “Dnmt1 M2”. The binding sequence of let-7d-3p in mouse Dnmt1 3′UTR is: […]

[5] = system: mouse Dnmt1 3′ UTR region; assay: Dnmt1 3' UTR luciferase reporter assay in HEK293T cells; type: cell-based; conditions: 48 h post-transfection, FIG. 8C
Procedure: as §1

CC(=O)N[C@@H](CS)C(=O)O [N-acetylcysteine]
oxidant stress in HSCs (DCF positive cells) (HSCs from db/db mice): reversed
monocyte concentration in bone marrow [1]: restored
expression of DNMT1 in db/db HSCs (Dnmt1; db/db HSCs, compared with WT HSCs, FIGS. 7E-F): restored
mRNA or protein levels of Dnmt3a and DNMT3b (Dnmt3a and DNMT3b): did not change

let-7d-3p mimic: let-7d-3p mimic purchased from Life Technologies (catalog number 4464066); microRNA that binds the Dnmt1 3′ UTR (guide CUAUACGACCUGCUGCCUUUCU; chemistry not given here)
methylation of Notch1, PU.1, Klf4 [2]: decreased
histone methylation levels (H3K9me2, H3K9me3) [3]: decreased
luciferase activity, let-7d-3p binding sites in Dnmt1 3′ UTR mutated [4]: didn't affect
luciferase activity, intact 3′ UTR construct [5]: significantly repressed
Dnmt1 expression in db/db HSCs (Dnmt1; db/db HSCs transfected, FIGS. 8F-G): decreased
